Measurements from patent publication US10081635B2, “Substituted N-(pyrrolidine-3-yl)-7H-pyrrolo[2,3-D]pyrimidine-4-amine as janus kinase inhibitor” (YANG JI CHEMICAL CO., LTD., priority 2014, dated 2018).
Blank lines part the entries; values can stand above or below the compound they belong to.

Legend:
Assay type in all cases: biochemical
Human JAK2 = Human JAK2 (Homo sapiens (Human), UniProt O60674); assay: In vitro kinase inhibition test, JAK2 (33P-ATP filter scintillation); conditions: compound at 1 uM; read-out: JAK2 kinase-phosphorylation inhibitory level (% inhibition)
Chain of Human JAK2 (O60674 whole entry): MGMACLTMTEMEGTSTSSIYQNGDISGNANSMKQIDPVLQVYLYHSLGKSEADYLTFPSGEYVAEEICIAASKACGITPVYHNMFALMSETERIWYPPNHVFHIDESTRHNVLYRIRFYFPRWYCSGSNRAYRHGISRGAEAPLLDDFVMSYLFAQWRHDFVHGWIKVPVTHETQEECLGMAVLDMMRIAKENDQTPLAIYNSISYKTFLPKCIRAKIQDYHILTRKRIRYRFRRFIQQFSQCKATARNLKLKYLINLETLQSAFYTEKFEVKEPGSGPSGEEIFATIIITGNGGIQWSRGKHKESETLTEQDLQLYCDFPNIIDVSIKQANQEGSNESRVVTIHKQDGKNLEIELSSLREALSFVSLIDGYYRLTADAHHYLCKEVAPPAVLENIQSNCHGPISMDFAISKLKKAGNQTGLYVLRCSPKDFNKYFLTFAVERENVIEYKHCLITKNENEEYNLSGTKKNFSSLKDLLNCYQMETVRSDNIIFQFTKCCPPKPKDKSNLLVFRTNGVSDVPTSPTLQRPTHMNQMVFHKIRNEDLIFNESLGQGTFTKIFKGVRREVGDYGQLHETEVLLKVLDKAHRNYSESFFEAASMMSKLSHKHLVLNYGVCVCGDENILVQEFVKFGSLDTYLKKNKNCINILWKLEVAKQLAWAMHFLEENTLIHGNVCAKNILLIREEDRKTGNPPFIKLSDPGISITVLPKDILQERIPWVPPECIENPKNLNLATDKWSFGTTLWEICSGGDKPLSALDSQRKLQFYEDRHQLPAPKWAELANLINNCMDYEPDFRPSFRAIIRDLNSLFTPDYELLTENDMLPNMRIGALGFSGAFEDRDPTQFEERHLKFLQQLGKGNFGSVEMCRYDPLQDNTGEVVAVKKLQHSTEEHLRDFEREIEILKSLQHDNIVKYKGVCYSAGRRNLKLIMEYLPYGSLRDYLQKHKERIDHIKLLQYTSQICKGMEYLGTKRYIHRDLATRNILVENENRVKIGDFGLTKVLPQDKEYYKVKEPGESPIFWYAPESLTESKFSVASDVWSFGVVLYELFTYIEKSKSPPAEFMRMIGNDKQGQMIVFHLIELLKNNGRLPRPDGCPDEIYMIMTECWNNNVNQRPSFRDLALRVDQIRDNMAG
Protocol: (§1) 1. In Vitro Kinase Inhibition Test
(§2) Kinases used were human-derived JAK1, JAK2, JAK3, and TYK2 (Millipore, Germany). Each of these kinases was diluted with a suitable buffer solution as described below, and then mixed with reagents.
(§3) 3-morpholinopropane-1-sulfonic acid (MOPS) and EDTA were dissolved in distilled water at a concentration of 20 mM and 1 mM, respectively, and 100 uL of β-mercaptoethanol, 10 uL of Brij-35™, 5 mL of glycerol, and 100 mg of bovine serum albumin (BSA), each per 100 mL of the solution, were added to the solution, thereby preparing a JAK2, JAK3, and TYK2 dilution buffer solution.
(§4) Each compound was dissolved in a 100% DMSO solution at a 50 uM concentration. This solution was reacted with reagents in wells on a 96-well plate to reach a final concentration of 1 uM. Detailed experimental methods for each kinase are described below.
(§5) After reaction for about 40 minutes at room temperature, the reaction was stopped by adding 5 uL of a 3% (v/v) phosphoric acid solution.
(§6) In Tables 5 and 6, the numbers in the “Example” column, which are identification numbers of the examples, indicate the compounds synthesized in the corresponding examples, the values in the “JAK1”, “JAK2”, “JAK3”, and “TYK2” columns represent kinase-phosphorylation inhibitory levels as a percentage (%) of the compounds synthesized in the corresponding examples at a 1 uM concentration. In Tables 5 and 6, negative values substantially indicate no inhibitory effect.
(§7) The inhibitory levels (% inhibition) represent a percentage of reduction in phosphorylation activity in each test group with respect to the phosphorylation activity of a corresponding kinase in a negative control group lacking any of the compounds synthesized in the examples. % inhibition=[(Scintillation value of Test compound non-treatment group−Scintillation value of Test compound treatment group)/(Scintillation value of Test compound non-treatment group)]×100

Human JAK1 = Human JAK1 (Homo sapiens (Human), UniProt P23458); assay: In vitro kinase inhibition test, JAK1 (33P-ATP filter scintillation); conditions: compound at 1 uM; read-out: JAK1 kinase-phosphorylation inhibitory level (% inhibition)
Chain of Human JAK1 (P23458 whole entry): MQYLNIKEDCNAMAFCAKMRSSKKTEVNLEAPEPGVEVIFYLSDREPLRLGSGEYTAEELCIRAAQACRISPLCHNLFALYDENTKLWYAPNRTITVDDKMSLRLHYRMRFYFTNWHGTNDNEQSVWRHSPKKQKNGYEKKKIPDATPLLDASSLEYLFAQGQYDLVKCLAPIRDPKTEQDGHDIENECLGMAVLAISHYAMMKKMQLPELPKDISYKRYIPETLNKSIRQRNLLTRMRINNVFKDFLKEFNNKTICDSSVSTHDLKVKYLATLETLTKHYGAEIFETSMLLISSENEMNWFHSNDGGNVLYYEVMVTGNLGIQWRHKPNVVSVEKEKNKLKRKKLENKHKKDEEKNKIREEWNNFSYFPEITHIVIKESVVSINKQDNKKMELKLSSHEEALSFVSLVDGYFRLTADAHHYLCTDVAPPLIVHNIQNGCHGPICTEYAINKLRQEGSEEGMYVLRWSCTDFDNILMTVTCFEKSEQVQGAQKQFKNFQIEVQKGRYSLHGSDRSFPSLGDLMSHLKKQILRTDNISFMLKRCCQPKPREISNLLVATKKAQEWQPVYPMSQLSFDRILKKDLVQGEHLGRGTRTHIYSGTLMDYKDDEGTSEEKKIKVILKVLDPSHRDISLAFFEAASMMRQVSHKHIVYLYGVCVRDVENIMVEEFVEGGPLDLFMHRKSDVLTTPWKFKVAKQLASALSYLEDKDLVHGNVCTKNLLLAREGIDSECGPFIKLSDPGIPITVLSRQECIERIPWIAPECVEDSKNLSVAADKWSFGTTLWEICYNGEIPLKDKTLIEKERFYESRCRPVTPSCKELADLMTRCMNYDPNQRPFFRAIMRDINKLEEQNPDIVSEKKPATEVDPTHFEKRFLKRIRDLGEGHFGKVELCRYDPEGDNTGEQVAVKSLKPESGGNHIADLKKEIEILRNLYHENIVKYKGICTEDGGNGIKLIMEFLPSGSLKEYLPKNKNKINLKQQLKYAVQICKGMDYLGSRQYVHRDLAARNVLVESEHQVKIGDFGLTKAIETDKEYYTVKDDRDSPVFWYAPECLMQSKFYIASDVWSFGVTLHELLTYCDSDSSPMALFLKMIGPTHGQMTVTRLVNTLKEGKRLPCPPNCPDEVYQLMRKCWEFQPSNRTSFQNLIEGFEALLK
Protocol: as §1, §2
Tris(hydroxymethyl)aminomethane (TRIS) and ethylenediaminetetraacetic acid (EDTA) were dissolved in distilled water at a concentration of 20 mM and 0.2 mM, respectively, and 100 uL of β-mercaptoethanol, 10 uL of Brij-35™, and 5 mL of glycerol, each per 100 mL of the solution, were added to the solution, thereby preparing a JAK1 dilution buffer solution.
as §4
After reaction for about 40 minutes at room temperature, the reaction was stopped by adding 5 uL of a 3% (v/v) phosphoric acid solution. […] The methanol drying is a drying process using an azeotropic effect, wherein methanol is added into an aqueous solution for drying.
as §6, §7

Human JAK3 = Human JAK3 (Homo sapiens (Human), UniProt P52333); assay: In vitro kinase inhibition test, JAK3 (33P-ATP filter scintillation); conditions: compound at 1 uM; read-out: JAK3 kinase-phosphorylation inhibitory level (% inhibition)
Chain of Human JAK3 (P52333 whole entry): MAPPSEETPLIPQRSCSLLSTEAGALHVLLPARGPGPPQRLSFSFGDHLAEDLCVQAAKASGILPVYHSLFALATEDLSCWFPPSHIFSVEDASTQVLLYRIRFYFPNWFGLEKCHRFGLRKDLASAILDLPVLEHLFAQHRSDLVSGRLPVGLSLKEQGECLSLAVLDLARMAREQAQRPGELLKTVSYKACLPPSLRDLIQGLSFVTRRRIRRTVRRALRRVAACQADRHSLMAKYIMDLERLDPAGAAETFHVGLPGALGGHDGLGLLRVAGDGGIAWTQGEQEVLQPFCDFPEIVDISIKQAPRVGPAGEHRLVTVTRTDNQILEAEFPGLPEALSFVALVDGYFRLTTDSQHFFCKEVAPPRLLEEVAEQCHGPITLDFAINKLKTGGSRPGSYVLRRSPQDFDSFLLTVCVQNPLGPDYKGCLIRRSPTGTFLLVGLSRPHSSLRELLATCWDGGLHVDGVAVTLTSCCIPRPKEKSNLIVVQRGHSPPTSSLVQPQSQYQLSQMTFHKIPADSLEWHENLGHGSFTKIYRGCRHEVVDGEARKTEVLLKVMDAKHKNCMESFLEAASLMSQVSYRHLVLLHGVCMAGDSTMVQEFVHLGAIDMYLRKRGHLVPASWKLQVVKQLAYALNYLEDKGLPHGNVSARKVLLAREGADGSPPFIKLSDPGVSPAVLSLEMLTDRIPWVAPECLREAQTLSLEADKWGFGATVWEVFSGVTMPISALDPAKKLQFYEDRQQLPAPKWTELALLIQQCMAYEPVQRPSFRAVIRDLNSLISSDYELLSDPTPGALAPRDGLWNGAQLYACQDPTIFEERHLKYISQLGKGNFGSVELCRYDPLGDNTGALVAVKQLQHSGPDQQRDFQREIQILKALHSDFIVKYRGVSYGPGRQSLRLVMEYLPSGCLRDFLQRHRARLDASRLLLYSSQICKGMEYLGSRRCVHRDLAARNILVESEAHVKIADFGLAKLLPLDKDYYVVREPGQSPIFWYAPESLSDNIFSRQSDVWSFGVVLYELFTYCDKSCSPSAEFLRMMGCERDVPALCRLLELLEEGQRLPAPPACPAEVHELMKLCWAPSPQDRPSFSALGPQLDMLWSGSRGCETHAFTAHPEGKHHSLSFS
Protocol: as §1, §2, §3, §4, §5, §6, §7

Human TYK2 = Human TYK2 (Homo sapiens (Human), UniProt P29597); assay: In vitro kinase inhibition test, TYK2 (33P-ATP filter scintillation); conditions: compound at 1 uM; read-out: TYK2 kinase-phosphorylation inhibitory level (% inhibition)
Chain of Human TYK2 (P29597 whole entry): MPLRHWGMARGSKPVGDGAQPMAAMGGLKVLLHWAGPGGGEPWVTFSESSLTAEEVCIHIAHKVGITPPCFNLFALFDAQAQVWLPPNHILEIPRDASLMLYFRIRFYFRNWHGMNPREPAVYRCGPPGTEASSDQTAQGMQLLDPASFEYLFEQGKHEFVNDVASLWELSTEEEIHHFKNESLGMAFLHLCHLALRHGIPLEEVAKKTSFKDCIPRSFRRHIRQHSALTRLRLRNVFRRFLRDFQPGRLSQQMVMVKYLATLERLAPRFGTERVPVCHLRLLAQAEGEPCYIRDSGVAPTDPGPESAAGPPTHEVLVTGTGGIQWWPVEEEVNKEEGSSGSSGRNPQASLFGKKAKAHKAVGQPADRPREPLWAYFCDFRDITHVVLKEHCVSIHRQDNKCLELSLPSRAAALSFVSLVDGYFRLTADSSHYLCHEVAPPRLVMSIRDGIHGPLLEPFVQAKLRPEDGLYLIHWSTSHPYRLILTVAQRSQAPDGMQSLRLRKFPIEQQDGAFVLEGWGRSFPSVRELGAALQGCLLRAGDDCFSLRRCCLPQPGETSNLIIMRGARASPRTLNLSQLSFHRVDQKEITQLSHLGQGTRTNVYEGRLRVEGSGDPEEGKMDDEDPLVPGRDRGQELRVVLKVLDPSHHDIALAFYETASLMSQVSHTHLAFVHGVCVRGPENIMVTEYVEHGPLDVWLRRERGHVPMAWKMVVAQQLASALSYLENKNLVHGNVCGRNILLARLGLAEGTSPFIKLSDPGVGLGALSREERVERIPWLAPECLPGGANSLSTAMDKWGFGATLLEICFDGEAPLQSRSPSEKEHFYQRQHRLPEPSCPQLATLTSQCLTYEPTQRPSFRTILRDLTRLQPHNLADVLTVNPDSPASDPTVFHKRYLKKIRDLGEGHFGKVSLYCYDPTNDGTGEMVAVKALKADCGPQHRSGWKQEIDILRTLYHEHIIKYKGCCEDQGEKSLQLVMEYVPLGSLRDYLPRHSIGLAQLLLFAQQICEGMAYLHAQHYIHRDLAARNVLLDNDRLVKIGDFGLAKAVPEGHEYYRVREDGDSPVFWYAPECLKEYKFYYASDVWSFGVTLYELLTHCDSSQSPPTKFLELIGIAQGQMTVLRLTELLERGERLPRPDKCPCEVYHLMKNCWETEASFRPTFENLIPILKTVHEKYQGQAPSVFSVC
Protocol: as §1, §2, §3, §4, §5, §6, §7

inhibition at 1 µM (Human JAK2): 69%
inhibition at 1 µM (Human JAK1): 99%
inhibition at 1 µM (Human JAK3): 39%
inhibition at 1 µM (Human TYK2): 71%
SMILES: COc1ccc(S(=O)(=O)N2C[C@H](N(C)c3ncnc4[nH]ccc34)C3(CC3)C2)cc1 [Example 47, (R)-N-(5-((4-methoxyphenyl)sulfonyl)-5-azaspiro[2.4]heptan-7-yl)-N-methyl-7H-pyrrolo[2,3-d]pyrimidin-4-amine]

inhibition at 1 µM (Human JAK2): -11%
inhibition at 1 µM (Human JAK1): 80%
inhibition at 1 µM (Human JAK3): 2%
inhibition at 1 µM (Human TYK2): 26%
SMILES: CN(c1ncnc2[nH]ccc12)[C@H]1CN(C(=O)c2cccnc2)CC12CC2 [Example 12, (R)-(7-(methyl(7H-pyrrolo[2,3-d]pyrimidin-4-yl)amino)-5-azaspiro[2.4]heptan-5-yl)(pyridin-3-yl)methanone]

inhibition at 1 µM (Human JAK2): 80%
inhibition at 1 µM (Human JAK1): 98%
inhibition at 1 µM (Human JAK3): 82%
inhibition at 1 µM (Human TYK2): 91%
SMILES: CN(c1ncnc2[nH]ccc12)[C@H]1CN(C(=S)CC#N)CC12CC2 [Example 19, (R)-3-(7-(methyl(7H-pyrrolo[2,3-d]pyrimidin-4-yl)amino)-5-azaspiro[2.4]heptan-5-yl)-3-thioxopropanenitrile]

inhibition at 1 µM (Human JAK2): 23%
inhibition at 1 µM (Human JAK1): 91%
inhibition at 1 µM (Human JAK3): 40%
inhibition at 1 µM (Human TYK2): 39%
SMILES: CN(c1ncnc2[nH]ccc12)[C@H]1CN(C(=O)Nc2cccc(Cl)c2Cl)CC12CC2 [Example 28, (R)-N-(2,3-dichlorophenyl)-7-(methyl(7H-pyrrolo[2,3-d]pyrimidin-4-yl)amino)-5-azaspiro[2.4]heptane-5-carboxamide]

inhibition at 1 µM (Human JAK2): 36%
inhibition at 1 µM (Human JAK1): 98%
inhibition at 1 µM (Human JAK3): 28%
inhibition at 1 µM (Human TYK2): 66%
SMILES: CN(c1ncnc2[nH]ccc12)[C@H]1CN(S(=O)(=O)c2ccc(C(F)(F)F)cc2)CC12CC2 [Example 48, (R)-N-methyl-N-(5-((4-(trifluoromethyl)phenyl)sulfonyl)-5-azaspiro[2.4]heptan-7-yl)-7H-pyrrolo[2,3-d]pyrimidin-4-amine]

inhibition at 1 µM (Human JAK2): -9%
inhibition at 1 µM (Human JAK1): 85%
inhibition at 1 µM (Human JAK3): 29%
inhibition at 1 µM (Human TYK2): 22%
SMILES: CC(C)COC(=O)N1CC(N(C)c2ncnc3[nH]ccc23)C2(CC2)C1 (stereo not shown) [Example 61, isobutyl 7-(methyl(7H-pyrrolo[2,3-d]pyrimidin-4-yl)amino)-5-azaspiro[2.4]heptane-5-carboxylate]

inhibition at 1 µM (Human JAK2): 24%
inhibition at 1 µM (Human JAK1): 31%
inhibition at 1 µM (Human JAK3): -3%
inhibition at 1 µM (Human TYK2): 5%
SMILES: CC(C)COC(=O)N1C[C@@H](N(C)c2ncnc3[nH]ccc23)C2(CC2)C1 [Example 70, isobutyl (S)-7-(methyl(7H-pyrrolo[2,3-d]pyrimidin-4-yl)amino)-5-azaspiro[2.4]heptane-5-carboxylate]

inhibition at 1 µM (Human JAK2): 25%
inhibition at 1 µM (Human JAK1): 83%
inhibition at 1 µM (Human JAK3): 16%
inhibition at 1 µM (Human TYK2): 49%
SMILES: CC(C)C(=O)N1C[C@H](N(C)c2ncnc3[nH]ccc23)C2(CC2)C1 [Example 3, (R)-2-methyl-1-(7-(methyl(7H-pyrrolo[2,3-d]pyrimidin-4-yl)amino)-5-azaspiro[2.4]heptan-5-yl)propan-1-one]

Second part, the compound before the results:

SMILES: CN(c1ncnc2[nH]ccc12)[C@H]1CN(C(=O)Nc2ccc(Cl)c(Cl)c2)CC12CC2 [Example 26, (R)-N-(3,4-dichlorophenyl)-7-(methyl(7H-pyrrolo[2,3-d]pyrimidin-4-yl)amino)-5-azaspiro[2.4]heptane-5-carboxamide]
inhibition at 1 µM (Human JAK2): 13%
inhibition at 1 µM (Human JAK1): 94%
inhibition at 1 µM (Human JAK3): 51%
inhibition at 1 µM (Human TYK2): 42%

SMILES: CC(C)S(=O)(=O)N1C[C@H](N(C)c2ncnc3[nH]ccc23)C2(CC2)C1 [Example 34, (R)-N-(5-(isopropylsulfonyl)-5-azaspiro[2.4]heptan-7-yl)-N-methyl-7H-pyrrolo[2,3-d]pyrimidin-4-amine]
inhibition at 1 µM (Human JAK2): 76%
inhibition at 1 µM (Human JAK1): 97%
inhibition at 1 µM (Human JAK3): 56%
inhibition at 1 µM (Human TYK2): 72%

SMILES: CN(c1ncnc2[nH]ccc12)[C@H]1CN(S(=O)(=O)c2ccc3ccccc3c2)CC12CC2 [Example 49, (R)-N-methyl-N-(5-(naphthalen-2-ylsulfonyI)-5-azaspiro[2.4]heptan-7-yl)-7H-pyrrolo[2,3-d]pyrimidin-4-amine]
inhibition at 1 µM (Human JAK2): 65%
inhibition at 1 µM (Human JAK1): 98%
inhibition at 1 µM (Human JAK3): 55%
inhibition at 1 µM (Human TYK2): 75%

SMILES: CCS(=O)(=O)N1C[C@H](N(C)c2ncnc3[nH]ccc23)C2(CC2)C1 [Example 33, (R)-N-(5-(ethylsulfonyl)-5-azaspiro[2.4]heptan-7-yl)-N-methyl-7H-pyrrolo[2,3-d]pyrimidin-4-amine]
inhibition at 1 µM (Human JAK2): 84%
inhibition at 1 µM (Human JAK1): 98%
inhibition at 1 µM (Human JAK3): 70%
inhibition at 1 µM (Human TYK2): 88%

SMILES: CN(c1ncnc2[nH]ccc12)[C@H]1CN(C(=O)Nc2ccc(Cl)cc2Cl)CC12CC2 [Example 25, (R)-N-(2,4-dichlorophenyl)-7-(methyl(7H-pyrrolo[2,3-d]pyrimidin-4-yl)amino)-5-azaspiro[2.4]heptane-5-carboxamide]
inhibition at 1 µM (Human JAK2): 5%
inhibition at 1 µM (Human JAK1): 88%
inhibition at 1 µM (Human JAK3): 25%
inhibition at 1 µM (Human TYK2): 48%

SMILES: CN(c1ncnc2[nH]ccc12)[C@H]1CN(C(=O)c2ccccc2)CC12CC2 [Example 13, (R)-(7-(methyl(7H-pyrrolo[2,3-d]pyrimidin-4-yl)amino)-5-azaspiro[2.4]heptan-5-yl)(phenyl)methanone]
inhibition at 1 µM (Human JAK2): -11%
inhibition at 1 µM (Human JAK1): 81%
inhibition at 1 µM (Human JAK3): 13%
inhibition at 1 µM (Human TYK2): 30%

SMILES: CN(c1ncnc2[nH]ccc12)[C@H]1CN(C(=O)c2cccc(C(F)(F)F)c2)CC12CC2 [Example 18, (R)-(7-(methyl(7H-pyrrolo[2,3-d]pyrimidin-4-yl)amino)-5-azaspiro[2.4]heptan-5-yl)(3-(trifluoromethyl)phenyl)methanone]
inhibition at 1 µM (Human JAK2): -17%
inhibition at 1 µM (Human JAK1): 71%
inhibition at 1 µM (Human JAK3): 5%
inhibition at 1 µM (Human TYK2): 37%

SMILES: CC(C)COC(=O)N1C[C@H](N(C)c2ncnc3[nH]ccc23)C2(CC2)C1 [Example 20, isobutyl (R)-7-(methyl(7H-pyrrolo[2,3-d]pyrimidin-4-yl)amino)-5-azaspiro[2.4]heptane-5-carboxylate]
inhibition at 1 µM (Human JAK2): 27%
inhibition at 1 µM (Human JAK1): 93%
inhibition at 1 µM (Human JAK3): 27%
inhibition at 1 µM (Human TYK2): 43%

SMILES: CCCCCN1C[C@H](N(C)c2ncnc3[nH]ccc23)C2(CC2)C1 [Example 2, (R)-N-methyl-N-(5-pentyl-5-azaspiro[2.4]heptan-7-yl)-7H-pyrrolo[2,3-d]pyrimidin-4-amine]
inhibition at 1 µM (Human JAK2): -19%
inhibition at 1 µM (Human JAK1): 77%
inhibition at 1 µM (Human JAK3): 7%
inhibition at 1 µM (Human TYK2): 3%

SMILES: CCC(=O)N1C[C@@H](N(C)c2ncnc3[nH]ccc23)C2(CC2)C1 [Example 64, (S)-1-(7-(methyl(7H-pyrrolo[2,3-d]pyrimidin-4-yl)amino)-5-azaspiro[2.4]heptan-5-yl)propan-1-one]
inhibition at 1 µM (Human JAK2): -9%
inhibition at 1 µM (Human JAK1): 16%
inhibition at 1 µM (Human JAK3): -1%
inhibition at 1 µM (Human TYK2): 0%

SMILES: CCS(=O)(=O)N1C[C@@H](N(C)c2ncnc3[nH]ccc23)C2(CC2)C1 [Example 71, (S)-N-(5-(ethylsulfonyl)-5-azaspiro[2.4]heptan-7-yl)-N-methyl-7H-pyrrolo[2,3-d]pyrimidin-4-amine]
inhibition at 1 µM (Human JAK2): 13%
inhibition at 1 µM (Human JAK1): 40%
inhibition at 1 µM (Human JAK3): -22%
inhibition at 1 µM (Human TYK2): 12%
